Source: PubChem BioAssay (NCI)
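Abbreviation: GI50, concentration required for 50% inhibition of growth. TGI is the concentration that stops growth completely.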

Legend:
Assay in all cases: NCI-60 cell line screen, 384-well format
786-0 renal = system: 786-0 renal
A498 renal = system: A498 renal
A549 NSCLC = system: A549 NSCLC
ACHN renal = system: ACHN renal
BT-549 breast = system: BT-549 breast
CAKI-1 renal = system: CAKI-1 renal
CCRF-CEM leukemia = system: CCRF-CEM leukemia
COLO 205 colon = system: COLO 205 colon
DU-145 prostate = system: DU-145 prostate
HCC-2998 colon = system: HCC-2998 colon
HCT-116 colon = system: HCT-116 colon
HCT-15 colon = system: HCT-15 colon
HL-60(TB) leukemia = system: HL-60(TB) leukemia
HOP-62 NSCLC = system: HOP-62 NSCLC
HT29 colon = system: HT29 colon
IGROV1 ovarian = system: IGROV1 ovarian
K-562 leukemia = system: K-562 leukemia
KM12 colon = system: KM12 colon
LOX IMVI melanoma = system: LOX IMVI melanoma
M14 melanoma = system: M14 melanoma
MALME-3M melanoma = system: MALME-3M melanoma
MCF7 breast = system: MCF7 breast
MDA-MB-231 breast = system: MDA-MB-231 breast
MDA-MB-435 melanoma = system: MDA-MB-435 melanoma
MDA-MB-468 breast = system: MDA-MB-468 breast
MOLT-4 leukemia = system: MOLT-4 leukemia
NCI-H226 lung = system: NCI-H226 lung
NCI-H23 lung = system: NCI-H23 lung
NCI-H322M lung = system: NCI-H322M lung
NCI-H460 NSCLC = system: NCI-H460 NSCLC
NCI-H522 lung = system: NCI-H522 lung
NCI/ADR-RES ovarian = system: NCI/ADR-RES ovarian
OVCAR-3 ovarian = system: OVCAR-3 ovarian
OVCAR-5 ovarian = system: OVCAR-5 ovarian
PC-3 prostate = system: PC-3 prostate
RPMI-8226 leukemia = system: RPMI-8226 leukemia
RXF 393 renal = system: RXF 393 renal
SF-268 CNS = system: SF-268 CNS
SF-295 CNS = system: SF-295 CNS
SF-539 CNS = system: SF-539 CNS
SK-MEL-2 melanoma = system: SK-MEL-2 melanoma
SK-MEL-28 melanoma = system: SK-MEL-28 melanoma
SK-MEL-5 melanoma = system: SK-MEL-5 melanoma
SK-OV-3 ovarian = system: SK-OV-3 ovarian
SN12C renal = system: SN12C renal
SNB-19 CNS = system: SNB-19 CNS
SR leukemia = system: SR leukemia
SW-620 colon = system: SW-620 colon
T-47D breast = system: T-47D breast
TK-10 renal = system: TK-10 renal
U251 glioblastoma = system: U251 glioblastoma
UACC-257 melanoma = system: UACC-257 melanoma
UACC-62 melanoma = system: UACC-62 melanoma
UO-31 renal = system: UO-31 renal

Structure (SMILES): COc1cc2nccc(Oc3ccc(NC(=O)c4cn(C(C)C)c(=O)n(-c5ccc(F)cc5)c4=O)cc3F)c2cc1OC
- GI50 ([…]-0 renal): 18.9 µM
- TGI (786-0 renal): > 100 µM
- GI50 (A498 renal): 3.41 µM
- TGI (A498 renal): > 100 µM
- GI50 (A549 NSCLC): 4.67 µM
- TGI (A549 NSCLC): > 100 µM
- GI50 (ACHN renal): 1.75 µM
- TGI (ACHN renal): 5.13 µM
- GI50 (BT-549 breast): 5.27 µM
- TGI (BT-549 breast): > 100 µM
- GI50 (CAKI-1 renal): 1.46 µM
- TGI (CAKI-1 renal): 2.81 µM
- GI50 (CCRF-CEM leukemia): > 100 µM
- TGI (CCRF-CEM leukemia): > 100 µM
- GI50 (COLO 205 colon): > 100 µM
- TGI (COLO 205 colon): > 100 µM
- GI50 (DU-145 prostate): > 100 µM
- TGI (DU-145 prostate): > 100 µM
- GI50 (HCC-2998 colon): > 100 µM
- TGI (HCC-2998 colon): > 100 µM
- GI50 (HCT-116 colon): 5.93 µM
- TGI (HCT-116 colon): > 100 µM
- GI50 (HCT-15 colon): > 100 µM
- TGI (HCT-15 colon): > 100 µM
- GI50 (HL-60(TB) leukemia): 2.6 µM
- TGI (HL-60(TB) leukemia): > 100 µM
- GI50 (HOP-62 NSCLC): 15 µM
- TGI (HOP-62 NSCLC): > 100 µM
- GI50 (HT29 colon): 7.99 µM
- TGI (HT29 colon): > 100 µM
- GI50 (IGROV1 ovarian): 5.5 µM
- TGI (IGROV1 ovarian): > 100 µM
- GI50 (K-562 leukemia): 0.0235 µM
- TGI (K-562 leukemia): 0.137 µM
- GI50 (KM12 colon): 0.0315 µM
- TGI (KM12 colon): > 100 µM
- GI50 (LOX IMVI melanoma): > 100 µM
- TGI (LOX IMVI melanoma): > 100 µM
- GI50 (M14 melanoma): 82.6 µM
- TGI (M14 melanoma): > 100 µM
- GI50 (MALME-3M melanoma): 2.85 µM
- TGI (MALME-3M melanoma): > 100 µM
- GI50 (MCF7 breast): 7.28 µM
- TGI (MCF7 breast): > 100 µM
- GI50 (MDA-MB-231 breast): 3.06 µM
- TGI (MDA-MB-231 breast): > 100 µM
- GI50 (MDA-MB-435 melanoma): > 100 µM
- TGI (MDA-MB-435 melanoma): > 100 µM
- GI50 (MDA-MB-468 breast): 6.91 µM
- TGI (MDA-MB-468 breast): > 100 µM
- GI50 (MOLT-4 leukemia): 0.407 µM
- TGI (MOLT-4 leukemia): 4.2 µM
- GI50 (NCI-H226 lung): 3.81 µM
- TGI (NCI-H226 lung): 61.4 µM
- GI50 (NCI-H23 lung): 0.0469 µM
- TGI (NCI-H23 lung): > 100 µM
- GI50 (NCI-H322M lung): > 100 µM
- TGI (NCI-H322M lung): > 100 µM
- GI50 (NCI-H460 NSCLC): 4.01 µM
- TGI (NCI-H460 NSCLC): > 100 µM
- GI50 (NCI-H522 lung): 1.65 µM
- TGI (NCI-H522 lung): 5.66 µM
- GI50 (NCI/ADR-RES ovarian): > 100 µM
- TGI (NCI/ADR-RES ovarian): > 100 µM
- GI50 (OVCAR-3 ovarian): > 100 µM
- TGI (OVCAR-3 ovarian): > 100 µM
- GI50 (OVCAR-5 ovarian): > 100 µM
- TGI (OVCAR-5 ovarian): > 100 µM
- GI50 (PC-3 prostate): 18.4 µM
- TGI (PC-3 prostate): > 100 µM
- GI50 (RPMI-8226 leukemia): 3.95 µM
- TGI (RPMI-8226 leukemia): > 100 µM
- GI50 (RXF 393 renal): 0.63 µM
- TGI (RXF 393 renal): 4.89 µM
- GI50 (SF-268 CNS): 3.37 µM
- TGI (SF-268 CNS): > 100 µM
- GI50 (SF-295 CNS): 0.271 µM
- TGI (SF-295 CNS): > 100 µM
- GI50 (SF-539 CNS): 1.3 µM
- TGI (SF-539 CNS): 2.85 µM
- GI50 (SK-MEL-2 melanoma): 2.29 µM
- TGI (SK-MEL-2 melanoma): 9.87 µM
- GI50 (SK-MEL-28 melanoma): 2.97 µM
- TGI (SK-MEL-28 melanoma): > 100 µM
- GI50 (SK-MEL-5 melanoma): 4.94 µM
- TGI (SK-MEL-5 melanoma): > 100 µM
- GI50 (SK-OV-3 ovarian): 5.58 µM
- TGI (SK-OV-3 ovarian): > 100 µM
- GI50 (SN12C renal): 0.642 µM
- TGI (SN12C renal): > 100 µM
- GI50 (SNB-19 CNS): > 100 µM
- TGI (SNB-19 CNS): > 100 µM
- GI50 (SR leukemia): 2.69 µM
- TGI (SR leukemia): 20.6 µM
- GI50 (SW-620 colon): 9.13 µM
- TGI (SW-620 colon): > 100 µM
- GI50 (T-47D breast): 1.5 µM
- TGI (T-47D breast): 6.25 µM
- GI50 (TK-10 renal): 96.6 µM
- TGI (TK-10 renal): > 100 µM
- GI50 (U251 glioblastoma): > 100 µM
- TGI (U251 glioblastoma): > 100 µM
- GI50 (UACC-257 melanoma): 2.33 µM
- TGI (UACC-257 melanoma): 8.74 µM
- GI50 (UACC-62 melanoma): 4.5 µM
- TGI (UACC-62 melanoma): > 100 µM
- GI50 (UO-31 renal): 0.246 µM
- TGI (UO-31 renal): 0.65 µM
